TGI and GI50 data for 21 molecules are collected here from PubChem BioAssay (NCI).

As a reminder, the TGI is the concentration giving total growth inhibition. What is called GI50 is the concentration at which growth is held to half of that of the control.

Holding throughout (assay): DTP human tumour cell line panel, 48 h
Test [1] deals with MALME-3M melanoma.
Test [2] concerns HOP-18 NSCLC.
Test [3] deals with A498 renal.
Test [4] has as its system HT29 colon.
The subject of test [5] is NCI-H23 lung.
Test [6] deals with OVCAR-3 ovarian.
Test [7] concerns DMS 114 small cell lung.
For test [8], the system named is HCC-2998 colon.
For test [9], the system named is NCI-H226 lung.
Test [10] deals with BT-549 breast.

“And” between values parts separate entries of the source, which are not always exact repeats. Identical values can stand only once.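 Step 1: Grow cells in 96-well plates. Step 2: Expose to compound for 48 hours at 5 concentrations. Step 3: Interpolate endpoints linearly; if unreached, use highest concentration. GI50: concentration for 50% inhibition of growth. TGI: concentration producing complete growth inhibition.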

As to `O=C(c1ccccc1)[C@H]1Nc2ccc(Cl)cc2[C@H]2c3ccccc3O[C@H]21`, the TGI in test [1] is 31.7 µM; in test [2], 24 µM; in [3], 24.5 µM; in test [4], 26.1 µM; in [5], 28.1 µM; in test [6], 25.7 µM. Also, the TGI in test [7] was 40.1 µM; in test [8], 31.5 µM.

On to `O=C(c1ccccc1)c1nc2ccc(Cl)cc2cc1C(Br)Br`, for which the TGI in [1] came to 5.43 µM; in test [9] it was 3.26 µM; in test [2], 1.31 µM; in [3] it was 9.45 µM; in test [4] it was 0.743 µM; in test [5], 1.11 µM. Moreover, the TGI in test [6] came to 0.856 µM; in test [7], 4.02 µM; in test [8], 2.88 µM; in [10] it was 1.12 µM.

Consider `O=c1c2ccccc2c(=O)n2n1-c1cccc(c1)CSSCc1cccc-2c1`, for which the GI50 in test [1], in test [9], in test [2], in [5], in test [6] and in test [7] was more than 100 µM throughout. Moreover, the GI50 in test [8] was more than 100 µM. The TGI in test [1], in test [9], in test [2], in test [5], in test [6] and in [7] was more than 100 µM throughout. Further, the TGI in test [8] is more than 100 µM.

As to `CC1=NC2(C(=O)O)C3(C(=O)O)N=C(C)OC3(C(F)(F)F)C2(C(F)(F)F)O1` (stereo not drawn), the TGI in test [1], in test [9], in [2], in test [3], in [4] and in [5] was more than 100 µM in each case. Besides, the TGI in test [6], in test [7] and in test [8] was more than 100 µM each time.

As for `CCOc1ccc2c(c1)[n+]([O-])c(-c1ccccc1)c(N)[n+]2[O-]`, the TGI in test [1] is more than 100 µM; in test [9], more than 100 µM; in test [2] it was more than 100 µM; in [3] it was more than 100 µM; in test [4] it was more than 100 µM; in test [5], 91.3 µM. The TGI in test [6], in test [7] and in test [8] was more than 100 µM in each case.

Turning to `CCOP(=O)(OCC)C(C(=O)OC)C(=O)C(=O)Nc1cccc([N+](=O)[O-])c1` (stereo not drawn), the TGI in [1], in test [9], in test [2], in [3], in test [4] and in [5] was more than 100 µM each time. The TGI in test [6], in test [7] and in [8] was more than 100 µM in each case.

For the molecule `Cc1cc(C)c2c(c1)CSCc1cc(C)cc(C)c1-2`, the TGI in test [1] was 56.8 µM; in [9] it was more than 100 µM; in [2] it was more than 100 µM; in [3] it was 79.9 µM; in [4] it was 47.1 µM; in test [5] it was more than 100 µM. Moreover, the figures for the TGI in test [6], in test [7] and in test [8] were more than 100 µM, 69.9 µM and more than 100 µM, respectively.

Consider `O=C1C2C3SC(c4cc5ccccc5cc43)C2C(=O)N1c1ccccc1` (stereo not drawn), for which the TGI in [1], in [9], in [2], in test [3], in [4] and in test [5] was more than 100 µM throughout. In addition, the TGI in test [6], in test [7] and in test [8] was more than 100 µM throughout.

`O=[N+]([O-])c1ccc(Cl)c(C2CC(c3cccc4ccccc34)=Nc3ccccc3S2=O)c1` (stereo not drawn): the TGI in [1] is 42.5 µM; in [9] it was more than 54.5 µM; in [2], more than 100 µM; in [3] it was 64.7 µM; in test [4] it was 37.9 µM; in [5] it was 17.4 µM. In addition, the TGI was 83.4 µM in [6], 41.1 µM in [7] and more than 50.3 µM in test [8].

For the molecule `CCC(=O)N1C(=S)SC[C@H]1C(=O)OC`, the TGI in test [1], in test [9], in test [2], in test [3], in [4] and in test [5] was more than 100 µM in each case. In addition, the TGI in test [6], in test [7] and in test [8] was more than 100 µM throughout.

As for `CCOc1ccc2c(c1)[n+]([O-])c(C(N)=O)c(N)[n+]2[O-]`, the TGI in [1], in test [9], in test [2], in test [3], in test [4] and in [5] was more than 100 µM each time. The TGI in test [6] and in test [7] was more than 100 µM in each case.

On to `O=c1c(-c2cccc3ccccc23)c(-c2cccc3ccccc23)c1=O`, for which the TGI was more than 86.2 µM in test [1]; 6.51 µM in test [9]; more than 100 µM in test [2]; 18.1 µM in [3]; 3.03 µM in [4]; 9.27 µM in [5]. In addition, the TGI in [6] turned out to be 11.6 µM; in [7], 13.2 µM; in [8], 4.95 µM.

As to `O=C1/C(=C/c2cc(O)c(O)c(O)c2)Oc2cc(O)cc(OC3OC(CO)C(O)C(O)C3O)c21` (stereo not drawn), the TGI in test [2] is more than 100 µM; in test [3] it was more than 100 µM; in test [4] it was 59.5 µM; in [5], 80.9 µM; in [6] it was 31.4 µM; in test [7] it was more than 100 µM. Further, the TGI in test [8] was more than 100 µM.

For the molecule `O=c1cc(-c2cccc(Cl)c2)[nH]c2cc3c(cc12)OCO3`, the GI50 is 0.31 µM in [1], 1.04 µM in test [3], 3.19 µM in test [4] and 3.37 µM in test [5]. Moreover, the TGI was 34.4 µM in [2]; 36.9 µM and 29.6 µM in [3]; 9.41 µM and 15.4 µM in test [4]; 3.45 µM and 13.2 µM in test [5]; 4.23 µM in test [7]; 4.97 µM in test [8]. The molecule also yielded a TGI in test [10] of 17.1 µM.

On to `CCN(CC)C(=O)c1cccc2c(OC)ccc(OC)c12`, for which the TGI in [1], in test [9], in [2], in [3], in test [4] and in test [5] was more than 100 µM each time. Besides, the TGI in [6], in test [7] and in [8] was more than 100 µM throughout.

Regarding `O=S(=O)(c1ccccc1)N1CCC1c1ccccc1` (stereo not drawn), the TGI in test [1], in test [9], in [2], in test [3], in test [4] and in [5] was more than 100 µM in each case. The TGI in [6], in [7] and in test [8] was more than 100 µM each time.

On to `COc1ccc2c(c1[N+](=O)[O-])CC[C@@H]1[C@@H]2CC[C@]2(C)C(=O)CC[C@@H]12`, for which the GI50 was more than 748 µM in [1]; 494 µM in test [9]; 352 µM in test [3]; more than 1000 µM in test [4]; 679 µM in [5]; 631 µM in [6]. In addition, the GI50 was more than 25 µM in test [8] and 470 µM in test [10]. The TGI in [2] was more than 25 µM; in [3] it was > 25 µM and 791 µM; in test [4], more than 1000 µM; in [5], more than 1000 µM; in test [6] it was more than 1000 µM; in test [7], 25 µM. For the same molecule, the TGI in [8] and in [10] was more than 1000 µM in each case.

As for `CN(c1ccccc1)c1nc(=[N+](C)C)ss1`, the TGI in test [1], in [9], in [2], in test [3], in test [4] and in test [5] was more than 100 µM throughout. The TGI in test [7] and in [8] was more than 100 µM in each case.

Take `CN(C)CCN1C(=O)c2cccc3cc(N)cc(c23)C1=O`: the GI50 in [1] was 2.41 µM; in test [9], 1.51 µM; in test [4], 2.75 µM; in test [5], 3.43 µM; in [6], 4.98 µM; in test [8] it was 4.69 µM. Further, in test [10], the GI50 was 11.2 µM. Moreover, the TGI was 9.85 µM and 8.29 µM in [1]; 5.34 µM and 8.51 µM in test [9]; 33.7 µM in [2]; 13.8 µM and 8.93 µM in test [3]; 12 µM and 14.1 µM in test [4]; 22.7 µM and 14.1 µM in test [5]. For the same molecule, the concentration for total growth inhibition (TGI) is 25.9 µM and 26.4 µM in test [6]; 12.7 µM in test [7]; 22.1 µM and 12 µM in test [8]; 28.3 µM and 13.1 µM in test [10].

With `CC[O-].CC[O-].[O-]c1ccccc1C=NC12CC3CC(CC(C3)C1)C2.[O-]c1ccccc1C=NC12CC3CC(CC(C3)C1)C2.[Ti+4]`, the GI50 in [1] is 64.2 µM; in [9], more than 100 µM; in test [2] it was 85.5 µM; in test [4], more than 100 µM; in test [5], 50 µM; in [6] it was more than 100 µM. The GI50 in [7] is 23.4 µM; in test [8], more than 100 µM. Also, the TGI in [1], in test [9], in test [2], in test [4], in test [5] and in test [6] was more than 100 µM each time. Also, the TGI in test [7] and in test [8] was more than 100 µM in each case.

Regarding `CC1COS(=O)N1c1ccccc1` (stereo not drawn), the TGI in [1], in [9], in test [2], in [3], in [4] and in test [5] was more than 100 µM in each case. For the same molecule, the TGI in test [7] and in test [8] was more than 100 µM throughout.
